Publication PMC3221803 (Journal of neuroscience methods, 2011)
Several values for one entry are separate records, joined by “and”; a condition that tells them apart may be missing. Identical values can stand only once. Like-named read-outs stand apart in the source and are kept apart here.

Key:
[1] = target: T1, hNET (Homo sapiens, UniProt P23975); assay: biochemical; type: binding
[2] = target: T1, hNET; settings: read-out: IC50 for inhibition of [^3H]NE uptake; ref Eshleman et al., 1999; cited from earlier work
[3] = target: T1, hNET; settings: intact cells, 25°C

T1 sequence (P23975 whole entry): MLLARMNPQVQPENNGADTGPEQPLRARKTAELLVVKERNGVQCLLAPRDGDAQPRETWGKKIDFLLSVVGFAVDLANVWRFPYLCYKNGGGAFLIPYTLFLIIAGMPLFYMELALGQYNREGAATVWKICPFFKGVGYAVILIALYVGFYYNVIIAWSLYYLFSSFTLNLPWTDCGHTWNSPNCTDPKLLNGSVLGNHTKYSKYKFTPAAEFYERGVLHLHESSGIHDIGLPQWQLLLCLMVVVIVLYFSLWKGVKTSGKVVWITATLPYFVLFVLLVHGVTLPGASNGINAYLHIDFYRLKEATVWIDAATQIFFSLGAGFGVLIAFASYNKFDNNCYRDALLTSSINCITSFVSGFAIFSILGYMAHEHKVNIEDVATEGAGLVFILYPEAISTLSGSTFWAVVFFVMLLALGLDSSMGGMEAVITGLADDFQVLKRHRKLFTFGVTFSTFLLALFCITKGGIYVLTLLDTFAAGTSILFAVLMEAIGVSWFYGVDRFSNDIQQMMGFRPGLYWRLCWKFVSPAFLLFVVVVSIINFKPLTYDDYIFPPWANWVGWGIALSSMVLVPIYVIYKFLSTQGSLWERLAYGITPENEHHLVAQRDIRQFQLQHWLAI

Row | SMILES | Potency in inhibiting [^3H]CFT binding relative to [^3H]NE uptake (Ki ratio) [1] | Time to maximal [^3H]CFT binding [1] | Kd ([1]; Kd of CFT) | Kd ([1]; Kd of [^3H]CFT binding) | IC50 [2] | Time to maximal [^3H]CFT binding [3]
1 | CN1[C@@H]2CC[C@H]1C[C@@H](OC(c1ccccc1)c1ccccc1)C2 [benztropine] | equipotent | – | – | – | – | –
2 | OC1(c2ccc(Cl)cc2)c2ccccc2C2=NCCN21 (stereo not shown) [mazindol] | weaker | – | – | – | – | –
3 | COC(=O)[C@H]1[C@@H](c2ccc(F)cc2)C[C@@H]2CC[C@H]1N2C [CFT, 2β-carbomethoxy-3β-(4-fluorophenyl)-tropane] | – | 15 min | 18 ± 5 nM | 35.7 nM and 22.1 nM and 34.5 nM | 33.3 nM | 15 min
